From US7855290B2, “Pyridine derivatives and pyrimidine derivatives (3)” (Eisai R&D Management Co., Ltd., priority 2005, dated 2010)

These molecules were tested against T1, HGFR (Homo sapiens, UniProt P08581) (assay: Inhibitory activity against the HGFR autophosphorylation using ELISA (MKN-45 cells)). Conditions: 1 hr with test substance.
T1 construct: endogenous in cells; host or cells: MKN-45 human gastric cancer cells
T1 sequence (P08581 25-1390): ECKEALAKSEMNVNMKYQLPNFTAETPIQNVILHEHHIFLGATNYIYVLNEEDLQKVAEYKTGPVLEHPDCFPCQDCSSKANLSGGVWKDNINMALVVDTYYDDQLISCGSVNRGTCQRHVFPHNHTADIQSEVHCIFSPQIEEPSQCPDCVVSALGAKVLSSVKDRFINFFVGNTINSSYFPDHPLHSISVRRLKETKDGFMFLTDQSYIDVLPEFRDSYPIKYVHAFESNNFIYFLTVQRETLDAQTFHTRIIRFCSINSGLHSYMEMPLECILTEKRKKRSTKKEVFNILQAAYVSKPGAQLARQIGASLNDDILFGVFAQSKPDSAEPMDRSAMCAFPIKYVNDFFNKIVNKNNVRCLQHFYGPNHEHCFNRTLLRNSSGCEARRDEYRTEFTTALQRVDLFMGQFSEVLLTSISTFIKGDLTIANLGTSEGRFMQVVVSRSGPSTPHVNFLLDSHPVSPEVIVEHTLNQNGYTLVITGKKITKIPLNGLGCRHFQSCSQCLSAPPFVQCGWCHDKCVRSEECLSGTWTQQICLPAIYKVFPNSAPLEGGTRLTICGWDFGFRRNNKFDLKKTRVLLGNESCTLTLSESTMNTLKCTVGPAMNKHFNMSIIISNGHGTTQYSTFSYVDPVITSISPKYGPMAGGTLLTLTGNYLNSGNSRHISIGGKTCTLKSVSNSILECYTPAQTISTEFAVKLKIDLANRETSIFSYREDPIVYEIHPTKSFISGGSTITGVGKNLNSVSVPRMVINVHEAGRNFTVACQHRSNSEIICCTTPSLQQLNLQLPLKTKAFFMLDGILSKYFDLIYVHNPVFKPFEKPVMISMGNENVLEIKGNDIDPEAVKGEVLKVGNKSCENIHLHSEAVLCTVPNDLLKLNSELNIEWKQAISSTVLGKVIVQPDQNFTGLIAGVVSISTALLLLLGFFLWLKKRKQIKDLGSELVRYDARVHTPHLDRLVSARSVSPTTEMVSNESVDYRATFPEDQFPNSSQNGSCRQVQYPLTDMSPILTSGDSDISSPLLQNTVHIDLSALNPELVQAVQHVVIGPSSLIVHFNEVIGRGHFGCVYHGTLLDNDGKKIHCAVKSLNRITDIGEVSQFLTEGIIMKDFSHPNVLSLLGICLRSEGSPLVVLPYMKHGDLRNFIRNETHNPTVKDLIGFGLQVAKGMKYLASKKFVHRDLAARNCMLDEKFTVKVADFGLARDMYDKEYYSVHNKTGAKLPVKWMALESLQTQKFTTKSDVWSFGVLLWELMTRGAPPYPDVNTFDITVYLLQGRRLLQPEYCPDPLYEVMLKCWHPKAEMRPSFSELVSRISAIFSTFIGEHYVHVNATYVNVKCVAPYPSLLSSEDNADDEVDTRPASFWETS
Assay type: cell-based
Protocol: Human gastric cancer cells (MKN-45) were suspended in a 1% FBS-containing RPMI1640 medium (purchased from Sigma). The cell suspension (1×10^5 cells/ml) was put in a 96-well plate for cell culture (purchased from NUNC, Production No. 167008) at 0.1 ml/well, and then cultured in a 5% CO2 incubator (37° C.) overnight. After the culture, from each well was removed the supernatant, followed by adding 0.05 ml of a 1% FBS-containing RPMI1640 medium. Then, the well was supplied with 0.05 ml of the test substance dissolved in dimethyl sulfoxide (diluted with a 1% FBS-containing RPMI1640 medium), followed by culturing in a 5% CO2 incubator (37° C.) for 1 hr. From each well was removed the supernatant, and each well was washed with 150 μl of PBS, followed by adding 100 μl of a lysis buffer (50 mM Hepes (pH 7.4), 150 mM NaCl, 10% (v/v) glycerol, 1% Triton X-100, 1.5 mM MgCl2, 1 mM EDTA (pH 8.0), 100 mM NaF, 1 mM PMSF, 10 μg/ml Aprotinin, 50 μg/ml Leupeptin, 1 μg/ml Pepstatin A and 1 mM Na3VO4). The plate was shaken at 4° C. for 1 hr to prepare the cell extract.
To a 96-well plate for ELISA (purchased from COSTAR, Production No. 3369) was added 50 μl of 60 mM bicarbonate buffer (pH 9.6) containing 50 μg/ml of an anti-phosphotyrosine antibody (PY20, purchased from Transduction Laboratory, Production No. P-11120). The plate was incubated at 4° C. overnight.
Each well of the plate prepared in 2. was washed three times with 200 μl of PBS, and supplied with 150 μl of 3% BSA/PBS, followed by incubating at room temperature for 2 hrs. Each well was washed three times with 200 μl of PBS, and supplied with 50 μl of the above cell extract, followed by incubating at 4° C. overnight. After the incubation, each well was washed three times with 250 μl of a washing solution (0.1% BSA, 20 mM Tris-HCl (pH 7.6), 137 mM NaCl, and 0.05% Tween-20), and supplied with 70 μl of anti-HGFR antibody (h-Met(C-12), purchased from Santa Cruz, Production No. sc-10) 2,000-fold diluted with a reaction solution (1% BSA, 20 mM Tris-HCl (pH 7.6), 137 mM NaCl and 0.05% Tween-20), followed by incubating at room temperature for 1 hr. The well was washed three times with 250 μl of the washing solution, and supplied with 70 μl of peroxidase-labelled anti-rabbit IgG antibody (purchased from Cell Signaling, Production No. 7074) 2,000-fold diluted with the reaction solution, followed by incubating at room temperature for 1 hr. Each well was washed three times with 250 μl of the washing solution, and supplied with 70 μl of TMB Membrane Peroxidase Substrate (purchased from Funakoshi, Production No. 50-5077-03), followed by incubating at room temperature for 10 min. Each well was supplied with 70 μl of 1 M phosphoric acid, and using the Plate Reader MTP-500 (Corona Electric), the absorbance of the well was instantly determined at a measurement wavelength of 450 nm. While defining the absorbance of a well supplied with the cell extract having no test substance as 100% HGFR autophosphorylation activity, and the absorbance of a well supplied with 50 μl of the lysis buffer as 0% HGFR autophosphorylation activity, the HGFR autophosphorylation activity (%) was calculated for each well.
In the case of CN(C)CCN1CCC(N(C)C(=O)Nc2cc(Oc3ccc(NC(=O)C4(C(=O)Nc5ccc(F)cc5)CC4)c(F)c3)ccn2)CC1 [Example 25, N-(4-{[2-({[{1-[2-(Dimethylamino)ethyl]piperidin-4-yl}(methyl)amino]carbonyl}amino)pyridin-4-yl]oxy}-2-fluorophenyl)-N′-(4-fluorophenyl)cyclopropane-1,1-dicarboxamide], the IC50 is reported as 4.6 nM. O=C(Nc1cc(Oc2ccc(NC(=O)C3(C(=O)Nc4ccc(F)cc4)CC3)cc2F)ncn1)N1CCC(N2CCC2)CC1 [Example 34, N-{4-[(6-{[(4-Azetidin-1-ylpiperidin-1-yl)carbonyl]amino}pyrimidin-4-yl)oxy]-3-fluorophenyl}-N′-(4-fluorophenyl)cyclopropane-1,1-dicarboxamide] was tested, and the IC50 was 81 nM. O=C(Nc1cc(Oc2ccc(NC(=O)C3(C(=O)Nc4ccc(F)cc4)CC3)cc2F)ccn1)N1CCOCC1 [Example 67, N-[3-Fluoro-4-({2-[(morpholin-4-ylcarbonyl)amino]pyridin-4-yl}oxy)phenyl]-N′-(4-fluorophenyl)-cyclopropane-1,1-dicarboxamide] gave an IC50 of 10 nM. CN(C)[C@@H]1CCN(C(=O)Nc2cc(Oc3ccc(NC(=O)C4(C(=O)Nc5ccc(F)cc5)CC4)cc3F)ccn2)C1 [Example 36, N-(4-{[2-({[(3R)-3-(Dimethylamino)pyrrolidin-1-yl]carbonyl}amino)pyridin-4-yl]oxy}-3-fluorophenyl)-N′-(4-fluorophenyl)cyclopropane-1,1-dicarboxamide] showed an IC50 of 15 nM. CN(C)CCN1CCN(C(=O)Nc2cc(Oc3ccc(NC(=O)C4(C(=O)Nc5ccc(F)cc5)CC4)cc3)ccn2)CC1 [Example 30, N-[4-({2-[({4-[2-(Dimethylamino)ethyl]piperazin-1-yl}carbonyl)amino]pyridin-4-yl}oxy)phenyl]-N′-(4-fluorophenyl)cyclopropane-1,1-dicarboxamide] gave an IC50 of 12 nM. CN1CCN(C2CCN(C(=O)Nc3cc(Oc4ccc(NC(=O)C5(C(=O)Nc6ccccc6)CC5)c(F)c4)ccn3)CC2)CC1 [Example 54, N-(2-Fluoro-4-{[2-({[4-(4-methylpiperazin-1-yl)piperidin-1-yl]carbonyl}amino)pyridin-4-yl]oxy}phenyl)-N′-phenylcyclopropane-1,1-dicarboxamide] gave an IC50 of 24 nM. For CN1CCC(N(C)C(=O)Nc2cc(Oc3cc(F)c(NC(=O)C4(C(=O)Nc5ccc(F)cc5)CC4)cc3F)ncn2)CC1 [Example 100, N-(2,5-Difluoro-4-{[4-({[methyl(1-methylpiperidin-4-yl)amino]carbonyl}amino)pyrimidin-6-yl]oxy}phenyl)-N′-(4-fluorophenyl)cyclopropane-1,1-dicarboxamide], the IC50 was 9.4 nM. For O=C(Nc1cc(Oc2ccc(NC(=O)C3(C(=O)Nc4ccc(F)cc4)CC3)cc2)ccn1)N1CCC(CN2CCCC2)CC1 [Example 29, N-(4-Fluorophenyl)-N′-(4-{[2-({[4-(pyrrolidin-1-ylmethyl)piperidin-1-yl]-carbonyl}amino)pyridin-4-yl]oxy}phenyl)cyclopropane-1,1-dicarboxamide], the IC50 was 30 nM. Molecule CN(C)[C@H]1CCN(C(=O)Nc2cc(Oc3ccc(NC(=O)C4(C(=O)Nc5ccc(F)cc5)CC4)cc3)ccn2)C1 [Example 41, N-(4-{[2-({[(3S)-3-(Dimethylamino)pyrrolidin-1-yl]carbonyl}amino)pyridin-4-yl]oxy}phenyl)-N′-(4-fluorophenyl)cyclopropane-1,1-dicarboxamide] has an IC50 of 16 nM. CN(C)C1CCN(C(=O)Nc2cc(Oc3ccc(NC(=O)C4(C(=O)Nc5ccc(F)cc5)CC4)c(F)c3)ccn2)CC1 [Example 18, N-(4-{[2-({[4-(Dimethylamino)piperidin-1-yl]carbonyl}amino)pyridin-4-yl]oxy}-2-fluorophenyl)-N′-(4-fluorophenyl)cyclopropane-1,1-dicarboxamide] was tested, and the IC50 was 39 nM. Molecule CN(C)C1CN(C2CCN(C(=O)Nc3cc(Oc4ccc(NC(=O)C5(C(=O)Nc6ccc(F)cc6)CC5)cc4F)ccn3)CC2)C1 [Example 21, N-[4-({2-[({4-[3-(Dimethylamino)azetidin-1-yl]piperidin-1-yl}carbonyl)amino]pyridin-4-yl}oxy)-3-fluorophenyl]-N′-(4-fluorophenyl)cyclopropane-1,1-dicarboxamide] has an IC50 of 11 nM. Molecule CN(C)C1CN(C2CCN(C(=O)Nc3cc(Oc4ccc(NC(=O)C5(C(=O)Nc6ccc(F)cc6)CC5)c(F)c4)ccn3)CC2)C1 [Example 14, N-[4-({2-[({4-[3-(Dimethylamino)azetidin-1-yl]piperidin-1-yl}carbonyl)amino]pyridin-4-yl}oxy)-2-fluorophenyl]-N′-(4-fluorophenyl)cyclopropane-1,1-dicarboxamide] has an IC50 of 19 nM. O=C(Nc1cc(Oc2ccc(NC(=O)C3(C(=O)Nc4ccc(F)cc4)CC3)cc2)ccn1)N1CCC(N2CCC2)CC1 [Example 13, N-{4-[(2-{[(4-Azetidin-1-ylpiperidin-1-yl)carbonyl]amino}pyridin-4-yl)oxy]phenyl}-N′-(4-fluorophenyl)cyclopropane-1,1-dicarboxamide] gave an IC50 of 37 nM. O=C(Nc1cc(Oc2ccc(NC(=O)C3(C(=O)Nc4ccc(F)cc4)CC3)c(F)c2)ccn1)N1CC(CO)C1 [Example 75] was tested, and the IC50 was 13 nM. Work on O=C(Nc1cc(Oc2ccc(NC(=O)C3(C(=O)Nc4ccc(F)cc4)CC3)c(F)c2)ccn1)N1CCC(CN2CCC2)CC1 [Example 37, N-(4-{[2-({[4-(Azetidin-1-ylmethyl)piperidin-1-yl]carbonyl}amino)pyridin-4-yl]oxy}-2-fluorophenyl)-N′-(4-fluorophenyl)cyclopropane-1,1-dicarboxamide] yielded an IC50 of 6.6 nM. O=C(Nc1cc(Oc2ccc(NC(=O)C3(C(=O)Nc4ccc(F)cc4)CC3)cc2)ccn1)N1CCCC1 [Example 69, N-(4-Fluorophenyl)-N′-[4-({2-[(pyrrolidin-1-ylcarbonyl)amino]pyridin-4-yl}oxy)phenyl]cyclopropane-1,1-dicarboxamide] gave an IC50 of 37 nM. Work on O=C(Nc1cc(Oc2ccc(NC(=O)C3(C(=O)Nc4ccc(F)cc4)CC3)cc2)ccn1)N1CCC1 [Example 70, N-[4-({2-[(Azetidin-1-ylcarbonyl)amino]pyridin-4-yl}oxy)phenyl]-N′-(4-fluorophenyl)cyclopropane-1,1-dicarboxamide] yielded an IC50 of 27 nM. Molecule O=C(Nc1cc(Oc2ccc(NC(=O)C3(C(=O)Nc4ccc(F)cc4)CC3)cc2F)ccn1)N1CCC(N2CCC2)CC1 [Example 11, N-{4-[(2-{[(4-Azetidin-1-ylpiperidin-1-yl)carbonyl]amino}pyridin-4-yl)oxy]-3-fluorophenyl}-N′-(4-fluorophenyl)cyclopropane-1,1-dicarboxamide] has an IC50 of 13 nM. CN1CCC(N(C)C(=O)Nc2cc(Oc3ccc(NC(=O)C4(C(=O)Nc5ccc(F)cc5)CC4)c(F)c3)ccn2)CC1 [Example 3, N-(2-Fluoro-4-{[2-({[methyl(1-methylpiperidin-4-yl)amino]carbonyl}amino)pyridin-4-yl]oxy}phenyl)-N′-(4-fluorophenyl)cyclopropane-1,1-dicarboxamide] was tested, and the IC50 was 19 nM. Molecule O=C(Nc1cc(Oc2ccc(NC(=O)C3(C(=O)Nc4ccc(F)cc4)CC3)cc2F)ccn1)N1CCC1 [Example 65, N-[4-({2-[(Azetidin-1-ylcarbonyl)amino]pyridin-4-yl}oxy)-3-fluorophenyl]-N′-(4-fluorophenyl)cyclopropane-1,1-dicarboxamide] has an IC50 of 10 nM. With O=C(Nc1cc(Oc2ccc(NC(=O)C3(C(=O)Nc4ccc(F)cc4)CC3)cc2F)ccn1)N1CCC(N2CCCC2)CC1 [Example 10, N-(4-Fluorophenyl)-N′-{3-fluoro-4-[(2-{[(4-pyrrolidin-1-ylpiperidin-1-yl)carbonyl]amino}pyridin-4-yl)oxy]phenyl}cyclopropane-1,1-dicarboxamide] the IC50 was 21 nM.
